These are literature values, as cited in paper PMC10216446 (Biomolecules, 2023).

By IC50 is commonly meant the midpoint of a concentration-inhibition curve.

The conditions of data set [1]: stated as a known limitation of TNP, no reference given.
A further data set deals with human cytochrome P450s. Set-up: method as in PMID 27689003.
Another data set relates to IP6K. The conditions noted are these: reported values; read-out: reported IC50 values for TNP.

Regarding `O=[N+]([O-])c1ccc(CNc2nc(NCc3cccc(C(F)(F)F)c3)nc3nc[nH]c23)cc1` [TNP, N2-(m-trifluorobenzyl), N6-(p-nitrobenzyl)purine], in data set [1], the aqueous solubility result is given as “poor”. Besides, the “inhibition of human cytochrome P450s” value with human cytochrome P450s is “potent inhibitor of human cytochrome P450s”. In addition, the IC50 in the data set on IP6K was 250 to 1000 nM.
